Laboratory results: patent US4069316A, “Method for producing antibiotic T-42082 and antibiotic T-42082” (Takeda Chemical Industries, Ltd., priority 1976, dated 1978)

System: Eimeria tenella
Test: Experimental 3: anticoccidial effect in chicks inoculated with drug-resistant wild strain
Description: The following experiment was carried out with a wild strain resistant to the conventional anticoccidial drugs.
The oocysts, predominantly of Eimeria tenella, obtained from a wild strain were used to inoculate chicks at a rate of 10×10^5 sporulated oocysts per bird. […] The battery test procedure was repeated.

Structure (SMILES): NC(=NN=Cc1ccc(Cl)cc1)NN=Cc1ccc(Cl)cc1 [Lobenidine]
- At end of experiment/At start of experiment (No. of birds) (33.0 ppm): 3/3
- Relative Weight gain (33.0 ppm): 26.4%
- The pathological change of caecum: birds scored + (33.0 ppm): 0
- The pathological change of caecum: birds scored ++ (33.0 ppm): 0
- The pathological change of caecum: birds scored +++ (33.0 ppm): 0
- The pathological change of caecum: birds scored ++++ (33.0 ppm): 3
- The pathological change of caecum: birds scored - (33.0 ppm): 0
- No. of blood drops/per bird (33.0 ppm, day 4): 2.3
- No. of blood drops/per bird (33.0 ppm, day 5): 9.3
- No. of deaths (33.0 ppm, day 5): 0
- No. of blood drops/per bird (33.0 ppm, day 6): 9.3
- No. of deaths (33.0 ppm, day 6): 0
- No. of blood drops/per bird (33.0 ppm, day 7): 6.0
- No. of deaths (33.0 ppm, day 7): 0
- No. of deaths (33.0 ppm, day 8): 0
- At end of experiment/At start of experiment (No. of birds) (66.0 ppm): 3/3
- Relative Weight gain (66.0 ppm): 53.4%
- The pathological change of caecum: birds scored + (66.0 ppm): 0
- The pathological change of caecum: birds scored ++ (66.0 ppm): 0
- The pathological change of caecum: birds scored +++ (66.0 ppm): 0
- The pathological change of caecum: birds scored ++++ (66.0 ppm): 3
- The pathological change of caecum: birds scored - (66.0 ppm): 0
- No. of blood drops/per bird (66.0 ppm, day 4): 0.6
- No. of blood drops/per bird (66.0 ppm, day 5): 8.0
- No. of deaths (66.0 ppm, day 5): 0
- No. of blood drops/per bird (66.0 ppm, day 6): 10.0
- No. of deaths (66.0 ppm, day 6): 0
- No. of blood drops/per bird (66.0 ppm, day 7): 4.6
- No. of deaths (66.0 ppm, day 7): 0
- No. of deaths (66.0 ppm, day 8): 0
